Reference: the supplement of paper PMC8149375

How the values were obtained:
Settings in all cases: treatment: drug + dasatinib (fixed dose, not stated); 5 days
[1] = tested on: UO-31; assay: minimum viability across doses, drug + dasatinib, relative to DMSO (fraction); higher = less growth inhibition
Procedure: (§1)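 Primary HTS combination arm: 8 RCC cell lines treated with 8 doses (up to 10 uM) of each library drug plus a fixed dose of dasatinib (dose not stated) for 5 days; viability read by CellTiter-Glo and normalised to DMSO. GI50 was fitted with XLfit, AUC is the area under the dose-response curve, and minimum viability is the lowest fraction of DMSO viability across doses.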

[2] = tested on: 786-O; assay: as above
Procedure: as §1

[3] = tested on: TK-10; assay: as above
Procedure: as §1

[4] = tested on: ACHN; assay: as above
Procedure: as §1

[5] = tested on: 769-P; assay: as above
Procedure: as §1

[6] = tested on: CAKI-1; assay: as above
Procedure: as §1

[7] = tested on: A498; assay: as above
Procedure: as §1

[8] = tested on: SN12C; assay: as above
Procedure: as §1

[9] = tested on: UO-31; assay: GI50 of drug in presence of dasatinib; higher = less potent
Procedure: as §1

[10] = tested on: 786-O; assay: as above
Procedure: as §1

[11] = tested on: TK-10; assay: as above
Procedure: as §1

[12] = tested on: 769-P; assay: as above
Procedure: as §1

[13] = tested on: CAKI-1; assay: as above
Procedure: as §1

[14] = tested on: A498; assay: as above
Procedure: as §1

[15] = tested on: SN12C; assay: as above
Procedure: as §1

[16] = tested on: UO-31; assay: AUC of dose-response viability curve, drug + dasatinib, normalised to DMSO (arbitrary (AUC of normalised viability)); higher = less growth inhibition
Procedure: as §1

[17] = tested on: 786-O; assay: as above
Procedure: as §1

[18] = tested on: TK-10; assay: as above
Procedure: as §1

[19] = tested on: ACHN; assay: as above
Procedure: as §1

[20] = tested on: 769-P; assay: as above
Procedure: as §1

[21] = tested on: CAKI-1; assay: as above
Procedure: as §1

[22] = tested on: A498; assay: as above
Procedure: as §1

[23] = tested on: SN12C; assay: as above
Procedure: as §1

SMILES | GI50 of drug [10] [µM] | minimum viability across doses [1] | minimum viability across doses [2] | minimum viability across doses [3] | minimum viability across doses [4] | minimum viability across doses [5] | minimum viability across doses [6] | minimum viability across doses [7] | minimum viability across doses [8] | GI50 of drug [9] [µM] | GI50 of drug [11] [µM] | GI50 of drug [12] [µM] | GI50 of drug [13] [µM] | GI50 of drug [14] [µM] | GI50 of drug [15] [µM] | AUC of dose-response viability curve [16] | AUC of dose-response viability curve [17] | AUC of dose-response viability curve [18] | AUC of dose-response viability curve [19] | AUC of dose-response viability curve [20] | AUC of dose-response viability curve [21] | AUC of dose-response viability curve [22] | AUC of dose-response viability curve [23]
CCCNC(=O)Nc1ccc(Oc2ncnc3cc(OC)c(OC)cc23)cc1Cl [KRN 633] + Cc1nc(Nc2ncc(C(=O)Nc3c(C)cccc3Cl)s2)cc(N2CCN(CCO)CC2)n1 [dasatinib] | > 10 | 0.889 | 0.468 | 0.613 | 0.421 | 0.511 | 0.556 | 0.847 | 0.612 | > 10 | > 10 | > 10 | > 10 | > 10 | > 10 | 3.62 | 2.06 | 2.5 | 1.76 | 2.44 | 2.31 | 3.47 | 2.51
Cl.Cl.Clc1ccc(Nc2nnc(Cc3ccncc3)c3ccccc23)cc1 [Vatalanib dihydrochloride (PTK787)] + Cc1nc(Nc2ncc(C(=O)Nc3c(C)cccc3Cl)s2)cc(N2CCN(CCO)CC2)n1 [dasatinib] | > 10 | 0.834 | 0.549 | 0.666 | 0.474 | 0.433 | 0.217 | 0.729 | 0.632 | > 10 | > 10 | 7.92 | 2.76 | > 10 | > 10 | 3.35 | 2.65 | 2.63 | 1.91 | 2.3 | 2.04 | 3.2 | 2.32
O=c1sn(-c2cccc3ccccc23)c(=O)n1Cc1ccccc1 [Tideglusib] + Cc1nc(Nc2ncc(C(=O)Nc3c(C)cccc3Cl)s2)cc(N2CCN(CCO)CC2)n1 [dasatinib] | 0.0101 | 1.03 | 0.429 | 0.642 | 0.357 | 0.632 | 0.664 | 0.729 | 0.672 | > 10 | > 10 | > 10 | > 10 | > 10 | > 10 | 4.27 | 1.76 | 2.33 | 1.79 | 2.52 | 2.44 | 3.01 | 2.5
OCCn1cc(-c2cnc3nnn(Cc4ccc5ncccc5c4)c3n2)cn1 + Cc1nc(Nc2ncc(C(=O)Nc3c(C)cccc3Cl)s2)cc(N2CCN(CCO)CC2)n1 [dasatinib] | > 10 | 0.926 | 0.702 | 0.688 | 0.448 | 0.651 | 0.408 | 0.872 | 0.614 | > 10 | > 10 | > 10 |  | > 10 | > 10 | 3.41 | 2.79 | 2.57 | 1.77 | 2.44 | 2.02 | 3.25 | 2.32
O=C1Nc2ccccc2/C1=C1/Nc2ccccc2C1=O [Indirubin] + Cc1nc(Nc2ncc(C(=O)Nc3c(C)cccc3Cl)s2)cc(N2CCN(CCO)CC2)n1 [dasatinib] |  | 0.799 | 0.394 | 0.593 | 0.435 | 0.632 | 0.497 | 0.941 | 0.624 | > 10 | > 10 | > 10 | > 10 | > 10 | > 10 | 3.15 | 1.76 | 2.48 | 1.65 | 2.38 | 2.02 | 3.41 | 2.36
CC1CCN(C(=O)CC#N)C[C@@H]1N(C)c1ncnc2[nH]ccc12.O=C(O)CC(O)(CC(=O)O)C(=O)O (stereo in doubt) + Cc1nc(Nc2ncc(C(=O)Nc3c(C)cccc3Cl)s2)cc(N2CCN(CCO)CC2)n1 [dasatinib] |  | 0.934 | 0.439 | 0.647 | 0.304 | 0.681 | 0.567 | 0.887 | 0.69 | > 10 | > 10 | > 10 | > 10 | > 10 | > 10 | 3.69 | 1.92 | 2.51 | 1.7 | 2.6 | 2.56 | 3.5 | 2.48

The next lines start with results.

GI50 of drug [10] [µM] | SMILES | minimum viability across doses [1] | minimum viability across doses [2] | minimum viability across doses [3] | minimum viability across doses [4] | minimum viability across doses [5] | minimum viability across doses [6] | minimum viability across doses [7] | minimum viability across doses [8] | GI50 of drug [9] [µM] | GI50 of drug [11] [µM] | GI50 of drug [12] [µM] | GI50 of drug [13] [µM] | GI50 of drug [14] [µM] | GI50 of drug [15] [µM] | AUC of dose-response viability curve [16] | AUC of dose-response viability curve [17] | AUC of dose-response viability curve [18] | AUC of dose-response viability curve [19] | AUC of dose-response viability curve [20] | AUC of dose-response viability curve [21] | AUC of dose-response viability curve [22] | AUC of dose-response viability curve [23]
5.68 | Cn1cc(-c2ccc3nnc(Sc4ccc5ncccc5c4)n3n2)cn1 [SGX-523] + Cc1nc(Nc2ncc(C(=O)Nc3c(C)cccc3Cl)s2)cc(N2CCN(CCO)CC2)n1 [dasatinib] | 0.836 | 0.477 | 0.646 | 0.452 | 0.548 | 0.41 | 0.743 | 0.679 | > 10 | > 10 | > 10 | 5.5 | > 10 | > 10 | 3.15 | 2.25 | 2.41 | 1.87 | 2.38 | 1.92 | 2.84 | 2.46
> 10 | NC(=O)c1ccc(N(C(N)=O)c2c(F)cccc2F)nc1-c1ccc(F)cc1F [VX-702] + Cc1nc(Nc2ncc(C(=O)Nc3c(C)cccc3Cl)s2)cc(N2CCN(CCO)CC2)n1 [dasatinib] | 1.12 | 0.547 | 0.598 | 0.409 | 0.627 | 0.649 | 0.887 | 0.685 | > 10 | > 10 | > 10 | > 10 | > 10 | > 10 | 4.36 | 2.23 | 2.39 | 1.87 | 2.4 | 2.43 | 3.52 | 2.54
